How the values were obtained:
PIP4K2C = PIP4K2C (Homo sapiens (Human), UniProt Q8TBX8); test: KINOMEscan PIP5K2C (also known as PIP4K2C) Assay (Eurofins Discovery); assay type: binding
Method: (§1) The inhibitory activity of the compounds were evaluated using KINOMEscan® PIP5K2B (also known as PIP4K2B) and KINOMEscan® PIP5K2C (also known as PIP4k2C) Assays (Eurofins Discovery) following the manufacturer's standards.

PIP4K2B = PIP4K2B (Homo sapiens (Human), UniProt P78356); test: KINOMEscan PIP5K2B (also known as PIP4K2B) Assay (Eurofins Discovery); assay type: binding
Method: as §1

PIP4K2A = PIP4K2A (Homo sapiens (Human), UniProt P48426); test: PIP4K2A inhibitory activity (Table 1); assay type: biochemical
Chain of PIP4K2A (P48426 whole entry, species assumed): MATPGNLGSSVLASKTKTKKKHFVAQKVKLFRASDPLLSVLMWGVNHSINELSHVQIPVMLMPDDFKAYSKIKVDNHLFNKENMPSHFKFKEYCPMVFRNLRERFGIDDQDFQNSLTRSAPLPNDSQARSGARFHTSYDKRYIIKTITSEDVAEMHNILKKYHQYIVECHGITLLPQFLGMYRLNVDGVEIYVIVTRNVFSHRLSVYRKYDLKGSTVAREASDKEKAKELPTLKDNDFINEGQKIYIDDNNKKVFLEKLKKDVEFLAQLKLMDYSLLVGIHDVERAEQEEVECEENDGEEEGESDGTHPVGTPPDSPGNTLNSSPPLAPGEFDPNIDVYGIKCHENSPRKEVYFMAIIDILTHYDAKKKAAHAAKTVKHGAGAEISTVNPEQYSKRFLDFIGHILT

Chain of PIP4K2C (Q8TBX8 whole entry): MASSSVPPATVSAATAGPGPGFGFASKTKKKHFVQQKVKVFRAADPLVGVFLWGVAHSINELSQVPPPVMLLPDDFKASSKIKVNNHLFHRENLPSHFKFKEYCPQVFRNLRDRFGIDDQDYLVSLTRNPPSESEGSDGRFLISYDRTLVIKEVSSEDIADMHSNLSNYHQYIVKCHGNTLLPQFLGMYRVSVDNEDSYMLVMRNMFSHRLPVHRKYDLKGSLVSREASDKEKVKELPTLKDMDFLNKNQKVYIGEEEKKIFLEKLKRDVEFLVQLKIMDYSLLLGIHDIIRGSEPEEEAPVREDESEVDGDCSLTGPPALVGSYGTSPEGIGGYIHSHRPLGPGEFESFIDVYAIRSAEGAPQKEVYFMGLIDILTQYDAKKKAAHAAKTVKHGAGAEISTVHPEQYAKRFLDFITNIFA
Chain of PIP4K2B (P78356 whole entry): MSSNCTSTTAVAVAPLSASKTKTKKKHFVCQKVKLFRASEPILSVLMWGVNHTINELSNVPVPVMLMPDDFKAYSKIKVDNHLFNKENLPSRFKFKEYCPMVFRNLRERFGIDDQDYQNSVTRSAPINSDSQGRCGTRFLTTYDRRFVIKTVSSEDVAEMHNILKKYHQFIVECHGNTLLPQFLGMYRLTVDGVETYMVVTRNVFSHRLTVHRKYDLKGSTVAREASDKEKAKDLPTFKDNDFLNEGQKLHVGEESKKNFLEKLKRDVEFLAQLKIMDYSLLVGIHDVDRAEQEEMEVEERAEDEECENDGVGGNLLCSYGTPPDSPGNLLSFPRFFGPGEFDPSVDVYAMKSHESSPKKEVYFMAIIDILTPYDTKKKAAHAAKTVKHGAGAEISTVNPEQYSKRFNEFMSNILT

Structure (SMILES)	Kd (PIP4K2C)	Kd (PIP4K2B)	IC50 (PIP4K2A)
Cc1cc(S(N)(=O)=O)ccc1Nc1ncc(Cl)c(-c2cccc(-c3ccccc3)c2)n1 [Compound 1]	0.036 µM	> 10 µM	> 10 µM
CC(=O)N(CC#N)S(=O)(=O)c1ccc(Nc2ncc(Cl)c(-c3cccc(-c4ccccc4)c3)n2)c(C)c1 [Compound 2]	0.056 µM	> 10 µM	> 10 µM
CC(=O)N(C)S(=O)(=O)c1ccc(Nc2ncc(Cl)c(-c3cccc(-c4ccccc4)c3)n2)c(C)c1 [Compound 3, N-((4-((4-([1,1′-biphenyl]-3-yl)-5-chloropyrimidin-2-yl)amino)-3-methylphenyl)sulfonyl)-N-methylacetamide]	0.029 µM	> 10 µM	8.76 µM
NS(=O)(=O)c1ccc(Nc2ncc(Cl)c(-c3cccc(-c4ccccc4)c3)n2)cc1 [Compound 4]	0.064 µM	> 10 µM	> 10 µM
Cc1cc(C(N)=O)ccc1Nc1ncc(Cl)c(-c2cccc(-c3ccccc3)c2)n1 [Compound 5, 4-((4-([1,1′-biphenyl]-3-yl)-5-chloropyrimidin-2-yl)amino)-3-methylbenzamide]	0.046 µM	–	–
Cc1cc(NS(C)(=O)=O)ccc1Nc1ncc(Cl)c(-c2cccc(-c3ccccc3)c2)n1 [Compound 6, N-(4-((4-([1,1′-biphenyl]-3-yl)-5-chloropyrimidin-2-yl)amino)-3-methylphenyl)methanesulfonamide]	0.043 µM	–	–
Cc1ccc(NS(C)(=O)=O)cc1Nc1ncc(Cl)c(-c2cccc(-c3ccccc3)c2)n1 [Compound 7, N-(3-((4-([1,1′-biphenyl]-3-yl)-5-chloropyrimidin-2-yl)amino)-4-methylphenyl)methanesulfonamide]	0.15 µM	–	–
CC(=O)Nc1ccc(Nc2ncc(Cl)c(-c3cccc(-c4ccccc4)c3)n2)c(C)c1 [Compound 8, N-(4-((4-([1,1′-biphenyl]-3-yl)-5-chloropyrimidin-2-yl)amino)-3-methylphenyl)acetamide]	0.27 µM	–	–
CC(=O)Nc1ccc(C)c(Nc2ncc(Cl)c(-c3cccc(-c4ccccc4)c3)n2)c1 [Compound 9, N-(3-((4-([1,1′-biphenyl]-3-yl)-5-chloropyrimidin-2-yl)amino)-4-methylphenyl)acetamide]	1.4 µM	> 10 µM	–
Cc1ccc(C(N)=O)cc1Nc1ncc(Cl)c(-c2cccc(-c3ccccc3)c2)n1 [Compound 10, 3-((4-([1,1′-biphenyl]-3-yl)-5-chloropyrimidin-2-yl)amino)-4-methylbenzamide]	0.065 µM	–	–
CC(=O)Nc1cncc(Nc2ncc(Cl)c(-c3cccc(-c4ccccc4)c3)n2)c1 [Compound 11, N-(5-((4-([1,1′-biphenyl]-3-yl)-5-chloropyrimidin-2-yl)amino)pyridin-3-yl)acetamide]	0.0072 µM	> 10 µM	–
O=C(Nc1cccc(Nc2ncc(Cl)c(-c3cccc(-c4ccccc4)c3)n2)c1)c1ccccc1 [Compound 12, N-(3-((4-([1,1′-biphenyl]-3-yl)-5-chloropyrimidin-2-yl)amino)phenyl)benzamide]	0.14 µM	> 10 µM	–
O=C(Nc1cncc(Nc2ncc(Cl)c(-c3cccc(-c4ccccc4)c3)n2)c1)c1ccccc1 [Compound 13, N-(5-((4-([1,1′-biphenyl]-3-yl)-5-chloropyrimidin-2-yl)amino)pyridin-3-yl)benzamide]	0.021 µM	> 10 µM	–
O=C(Nc1cncc(Nc2ncc(Cl)c(-c3cccc(-c4cccnc4)c3)n2)c1)c1ccccc1 [Compound 14]	0.038 µM	> 10 µM	–
O=C1CC[C@H]2COc3ncc(Nc4ncc(Cl)c(-c5cccc(-c6ccccc6)c5)n4)cc3N12 [Compound 15, (S)-2-((4-([1,1′-biphenyl]-3-yl)-5-chloropyrimidin-2-yl)amino)-6,6a,7,8-tetrahydro-9H-pyrido[2,3-b]pyrrolo[1,2-d][1,4]oxazin-9-one]	0.00045 µM	> 10 µM	–
O=C(COc1cccc2c1C(=O)N(C1CCC(=O)NC1=O)C2=O)NCCOCCOCCNS(=O)(=O)c1ccc(Nc2ncc(Cl)c(-c3cccc(-c4ccccc4)c3)n2)cc1 (centres unmarked) [Compound 36, N-(2-(2-(2-((4-((4-([1,1′-biphenyl]-3-yl)-5-chloro-1|4-pyrimidin-2-yl)amino)phenyl)sulfonamido)ethoxy)ethoxy)ethyl)-2-((2-(2,6-dioxopiperidin-3-yl)-1,3-dioxoisoindolin-4-yl)oxy)acetamide]	0.46 µM	–	–
CC(=O)N[C@H](C(=O)N1C[C@H](O)C[C@H]1C(=O)N[C@@H](C)c1ccc(-c2scnc2C)cc1OCCCCCNC(=O)CCC(=O)Nc1cncc(Nc2ncc(Cl)c(-c3cccc(-c4ccccc4)c3)n2)c1)C(C)(C)C [Compound 53, N1-(5-((4-([1,1′-biphenyl]-3-yl)-5-chloropyrimidin-2-yl)amino)pyridin-3-yl)-N4-(5-(2-((S)-1-((2S,4R)-1-((S)-2-acetamido-3,3-dimethylbutanoyl)-4-hydroxypyrrolidine-2-carboxamido)ethyl)-5-(4-methylthiazol-5-yl)phenoxy)pentyl)succinimide]	0.11 µM	–	–
Cc1ncsc1-c1ccc(CNC(=O)[C@@H]2C[C@@H](O)CN2C(=O)[C@@H](NC(=O)C2(F)CC2)C(C)(C)C)c(OCCCCCCC(=O)N2CCC3(CC2)CCN(c2cncc(Nc4ncc(Cl)c(-c5cccc(-c6ccccc6)c5)n4)c2)C3=O)c1 [Compound 56, (2S,4R)—N-(2-((7-(2-(5-((4-([1,1′-biphenyl]-3-yl)-5-chloropyrimidin-2-yl)amino)pyridin-3-yl)-1-oxo-2,8-diazaspiro[4,5]decan-8-yl)-7-oxoheptyl)oxy)-4-(4-methylthiazol-5-yl)benzyl)-1-((S)-2(1-fluorocyclopropane-1-carboxamido)-3,3-dimethylbutanoyl)-4-hydroxypyrrolidine-2-carboxamide]	0.62 µM	> 10 µM	–
Cc1ncsc1-c1ccc([C@H](C)NC(=O)[C@@H]2C[C@@H](O)CN2C(=O)[C@@H](NC(=O)CCCCCC(=O)N2CCC3(CC2)CCN(c2cncc(Nc4ncc(Cl)c(-c5cccc(-c6ccccc6)c5)n4)c2)C3=O)C(C)(C)C)cc1 [Compound 57]	0.042 µM	> 10 µM	–
